# In publication PMC10721928, “Structures revealing mechanisms of resistance and collateral sensitivity of Plasmodium falciparum to proteasome inhibitors” (Nature Communications, 2023):
# Read-outs that look alike come from different tables or passages of the source.
# Key:
# [1] = tested on: Mutants resistant to proteasome inhibitors; details: versus corresponding wild-type strains; cited from earlier work
# Excerpt: (§1) Mutations in Kelch13 (K13) are associated with ART resistance at the ring stage in laboratory settings[20]–[22]. […] Even a strain with doub ...
# [2] = tested on: Cam3.I^Rev; experiment: Ring-stage survival assay, revertant; assay type: cell-based, Plasmodium falciparum; details: 700 nM, 6 h
# Method: (§2) Ring-stage survival assays (RSA) were performed as reported. Parasite cultures, artemisinin resistant Cam3.I^R539T and the genetically engineered artemisinin sensitive revertant Cam3.I^rev, were synchronized with 5% sorbitol and a Percoll-sorbitol gradient to obtain tightly synchronized late-stage parasites. After isolation, the tightly synchronized parasites were then allowed to reinvade fresh red blood cells for 3 h and the microscopically confirmed ring stage parasite cultures were again subjected to 5% sorbitol to obtain 0–3 h rings. The isolated ring stage cultures were then plated into a 96-well plate at 0.5% parasitemia and treated with DHA and TDI-8304 at 700 nM at 37 °C in standard gas conditions for 6 h. The plates were then spun and washed to remove compounds and replenished with fresh medium without compounds. Parasite growth was assessed 66 h later using flow cytometry (Becton-Dickson flow cytometer) and nucleic acid stains HO (Hoechst 33342) and TO (thiazole orange).
# [3] = tested on: Cam3.I^R539T; experiment: Ring-stage survival assay, ART-resistant; assay type: cell-based, Plasmodium falciparum; details: 700 nM, 6 h
# Method: as §2
# [4] = tested on: Dd2; experiment: Parasite growth inhibition assay, Dd2; assay type: cell-based; details: Plasmodium falciparum
# Method: (§3) Parasite growth inhibition assays for P. falciparum wild type and mutants were performed as reported[19],[32].
# [5] = tested on: DR1; experiment: Parasite growth inhibition assay, DR1; assay type: cell-based; details: Plasmodium falciparum, read-out: EC50 (Fig. 1e)
# Method: as §3
# [6] = tested on: DR2; experiment: Parasite growth inhibition assay, DR2; assay type: cell-based; details: Plasmodium falciparum, read-out: EC50 (Fig. 1e)
# Method: as §3
# [7] = tested on: DR4; experiment: Parasite growth inhibition assay, DR4; assay type: cell-based; details: Plasmodium falciparum, Exp 2; read-out: EC50 (Fig. 1e)
# Method: as §3
# [8] = tested on: DR1/2/4; experiment: Parasite growth inhibition assay, DHA-selected clones; assay type: cell-based, Plasmodium falciparum
# Method: as §3
# [9] = tested on: strain with double mutations in both the proteasome and K13; details: versus wild-type strain; cited from earlier work
# Excerpt: as §1
# [10] = tested on: P. falciparum 3D7A; details: compared with pyrimethamine; cited from earlier work
# Excerpt: We previously reported two classes of non-covalent Pf20S selective inhibitors, one with a fast-on/off kinetics, represented by TDI-4258[19], and one with a time-dependent inhibition kinetics, represented by TDI-8304 (Fig. 1a)[16]. […] To investigate if inhibitors of the same target with diffe ...
compound,measurement,setting,value
"C[C@@H]1CC[C@H]2[C@@H](C)C(=O)O[C@@H]3O[C@@]4(C)CC[C@@H]1[C@]32OO4 [ART, artemisinin]",susceptibility to ART,[1],more susceptible to ART than the corresponding wild-type strains
"C[C@H]1[C@@H](O)O[C@@H]2O[C@@]3(C)CC[C@H]4[C@H](C)CC[C@@H]1[C@@]24OO3 [DHA, dihydroartemisinin]","ring-stage survival result in words, K13 Rev","[2]; 0–3 h rings, readout 66 h later",highly susceptible
same,ring-stage survival (Fig. 1c),[2]; Exp 1,1.86
same,ring-stage survival (Fig. 1c),[2]; Exp 2,-0.27
same,ring-stage survival (Fig. 1c),[2]; Exp 3,3.91
same,"ring-stage survival result in words, K13 R539T","[3]; 0–3 h rings, readout 66 h later, means of three independent experiments, paired t test",highly resistant
same,ring-stage survival (Fig. 1c),[3]; Exp 1,18.01
same,ring-stage survival (Fig. 1c),[3]; Exp 2,10.3
same,ring-stage survival (Fig. 1c),[3]; Exp 3,6.84
same,EC50,"[4]; DD2, read-out: EC50 (Fig. 1e), Exp 1",1 nM
same,EC50,"[4]; DD2, read-out: EC50 (Fig. 1e), Exp 2",0.9 nM
same,EC50,[5]; Exp 1,12.2 nM
same,EC50,[5]; Exp 2,7.1 nM
same,EC50,[6]; Exp 1,10.7 nM
same,EC50,[6]; Exp 2,8.7 nM
same,EC50,[7],8.1 nM
same,EC50 shift in the erythrocyte assays,[8]; DHA-selected clones versus Dd2,~ 10 fold
same,sensitivity of DR1/2/4 in words,"[8]; trophozoite stage, versus Dd2",highly resistant
same,susceptibility to DHA,[9],more susceptible to DHA than the wild-type strain
Cc1cc(C(=O)N[C@@H](CC(=O)NC(C)(C)C)C(=O)NCCNC(=O)c2cccc(-n3cccn3)c2)no1 [TDI-4258],in vitro parasite reduction ratio,[10],modest in vitro parasite reduction ratio similar to that of the antimalarial drug pyrimethamine
